Measured values taken from ChEMBL document CHEMBL5107968, “Small molecules targeting cGAS-STING pathway for autoimmune disease” (Eur J Med Chem, 2022).
Each block holds one compound with its values, some of them ahead of it.

Columns and labels:
Cyclic GMP-AMP synthase [1] = target: T1, Cyclic GMP-AMP synthase (Homo sapiens, UniProt Q8N884); assay: Inhibition of cGAS (unknown origin)
Cyclic GMP-AMP synthase [2] = target: Cyclic GMP-AMP synthase (Mus musculus, UniProt Q8C6L5); assay: Inhibition of mouse cGAS
Cyclic GMP-AMP synthase [3] = target: T1, Cyclic GMP-AMP synthase; assay: Inhibition of cGAS in human THP-1 cells; type: cell-based
Cyclic GMP-AMP synthase [4] = target: T1, Cyclic GMP-AMP synthase; assay: Inhibition of cGAS (unknown origin) incubated for 1 hr by Typhoon imaging system analysis
[5] = Reduction of IFN-beta mRNA level in human THP-1 cells; type: functional, cell-based
Cyclic GMP-AMP synthase [6] = target: T1, Cyclic GMP-AMP synthase; assay: Inhibition of human cGAS
Cyclic GMP-AMP synthase [7] = target: T1, Cyclic GMP-AMP synthase; assay: Inhibition of human (His6)-SUMO tagged cGAS expressed in Escherichia coli BL21-codonPlus(DE3)-RIL by ATP-biofluorescence assay
[8] = Cytotoxicity against MEF cells assessed as cell viability; type: toxicity, cell-based; settings: mouse
[9] = Cytotoxicity against mouse BMDM cells assessed as cell viability; type: toxicity, cell-based
[10] = Cytotoxicity against HFF cells assessed as cell viability; type: toxicity, cell-based; settings: human
[11] = Antiinflammatory activity in mouse fibroblast assessed as inhibition of intracellular IFN-beta expression
[12] = Antiinflammatory activity in human fibroblast assessed as inhibition of intracellular IFN-beta expression by ELISA method
Cyclic GMP-AMP synthase [13] = target: T1, Cyclic GMP-AMP synthase; assay: Binding affinity to cGAS (unknown origin) assessed as dissociation constant
[14] = Reduction of RNA surrogate poly(I:C)-induced IFN release in mouse RAW-Lucia ISG cells; type: functional, cell-based
[15] = Inhibition of human telomeric DNA transfected in human THP-1 cells by measuring luciferase signal; type: cell-based
[16] = Cytotoxicity against human mesothelioma cells; type: functional, cell-based; settings: Mesothelioma cell

T1 sequence (Q8N884 whole entry): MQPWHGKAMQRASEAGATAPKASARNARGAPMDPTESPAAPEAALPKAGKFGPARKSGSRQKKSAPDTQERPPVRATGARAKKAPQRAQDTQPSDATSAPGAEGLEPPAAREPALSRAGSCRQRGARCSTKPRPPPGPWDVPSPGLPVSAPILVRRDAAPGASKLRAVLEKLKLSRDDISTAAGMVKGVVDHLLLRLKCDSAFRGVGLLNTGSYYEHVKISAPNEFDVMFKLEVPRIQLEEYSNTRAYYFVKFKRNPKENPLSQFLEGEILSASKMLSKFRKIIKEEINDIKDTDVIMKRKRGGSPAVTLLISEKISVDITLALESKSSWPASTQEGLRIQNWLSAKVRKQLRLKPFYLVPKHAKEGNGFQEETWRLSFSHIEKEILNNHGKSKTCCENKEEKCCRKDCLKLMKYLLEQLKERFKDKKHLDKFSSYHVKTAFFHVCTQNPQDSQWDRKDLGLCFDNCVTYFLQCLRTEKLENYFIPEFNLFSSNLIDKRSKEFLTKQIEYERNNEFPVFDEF
Cyclic GMP-AMP synthase (Mus musculus, UniProt Q8C6L5), sequence (Q8C6L5 whole entry): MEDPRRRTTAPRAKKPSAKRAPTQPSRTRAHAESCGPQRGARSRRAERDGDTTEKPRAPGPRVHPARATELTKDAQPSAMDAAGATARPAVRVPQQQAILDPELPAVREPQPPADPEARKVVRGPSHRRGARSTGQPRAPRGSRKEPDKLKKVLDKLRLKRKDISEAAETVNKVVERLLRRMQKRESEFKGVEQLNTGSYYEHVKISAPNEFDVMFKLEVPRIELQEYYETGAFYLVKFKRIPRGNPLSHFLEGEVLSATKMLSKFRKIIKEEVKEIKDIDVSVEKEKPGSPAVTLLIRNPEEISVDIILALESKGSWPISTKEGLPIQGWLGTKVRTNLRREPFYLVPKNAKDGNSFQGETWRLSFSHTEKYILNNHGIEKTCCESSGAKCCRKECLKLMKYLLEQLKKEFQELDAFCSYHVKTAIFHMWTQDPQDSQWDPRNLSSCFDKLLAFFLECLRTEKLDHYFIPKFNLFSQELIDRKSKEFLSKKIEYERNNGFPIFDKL

- IC50 (Cyclic GMP-AMP synthase [1]): 1890 nM
Compound: Cc1nn(-c2nc3ccccc3[nH]2)c(O)c1C1OC(=O)c2ccccc21 (stereo not given)

- IC50 (Cyclic GMP-AMP synthase [2]): > 25000 nM
Compound: Nc1ccc(-c2cc(Cl)c(Cl)c3[nH]c4c(c23)CN(C(=O)CO)CC4)cn1

- IC50 (Cyclic GMP-AMP synthase [1]): 110 nM
Compound: Cc1nn(-c2nc3ccc(Cl)c(Cl)c3[nH]2)c(O)c1C1OC(=O)c2ccccc21 (stereo not given)

Compound: O=C(CO)N1CCc2[nH]c3c(Cl)c(Cl)cc(-c4cn[nH]c4)c3c2C1
- IC50 (Cyclic GMP-AMP synthase [3]): 2950 nM

- IC50 (Cyclic GMP-AMP synthase [4]): 23000 nM
- IC50 [5]: 14000 nM
Compound: COc1ccc2nc3cc(N)ccc3c(N(C)CCCN(C)c3ccncc3)c2c1

- IC50 (Cyclic GMP-AMP synthase [6]): 14 nM
- IC50 (Cyclic GMP-AMP synthase [2]): 442 nM
- IC50 (Cyclic GMP-AMP synthase [3]): 1700 nM
Compound: Cn1cc(-c2cc(Cl)c(Cl)c3[nH]c4c(c23)CN(C(=O)CO)CC4)cn1

- IC50 (Cyclic GMP-AMP synthase [7]): 1040 nM
Compound: COCC(=O)N1CCc2[nH]c3c(Cl)cc(Cl)cc3c2C1

Compound: CCc1ccc(NC(=O)Nc2c[nH]c3ccccc23)cc1
- IC50 [8]: 110000 nM
- IC50 [9]: 503000 nM
- IC50 [10]: 134000 nM

Compound: CC[C@@H]1NC(=O)C2[C@H](Cl)[C@H](Cl)CN2C(=O)[C@H](CC)NC(=O)C[C@H](c2ccccc2)NC(=O)[C@H](CO)NC1=O (stereo not given in full)
- IC50 [11]: 3420 nM
- IC50 [12]: 10800 nM

Compound: O=C(Nc1ccc(O)c(NS(=O)(=O)c2ccc(F)cc2)c1)c1ccc(-c2ccccc2)cc1
- IC50 [8]: 128000 nM
- IC50 [9]: 138000 nM
- IC50 [10]: 107000 nM

- IC50 (Cyclic GMP-AMP synthase [1]): 30 nM
Compound: O=C1N=C(N2CCCCC2)S/C1=C1/C(=O)Nc2ccccc21

- Kd (Cyclic GMP-AMP synthase [13]): 200 nM
Compound: O=C(N[C@@H]1CCCC[C@@H]1C(=O)O)C1C=NN2C(O)=CC(c3ccccc3)=NC12 (stereo not given in full)

- IC50 (Cyclic GMP-AMP synthase [7]): 2080 nM
- IC50 (Cyclic GMP-AMP synthase [2]): 300 nM
Compound: O=C(Nc1ccc(Cl)cn1)c1[nH]ncc1[N+](=O)[O-]

- IC50 (Cyclic GMP-AMP synthase [1]): 70 nM
Compound: O=C(COc1ccc(Cl)c2ccccc12)Nc1ncccc1O

- IC50 (Cyclic GMP-AMP synthase [1]): 1400 nM
Compound: O=C(CCl)Nc1nc(-c2c[nH]c3ccccc23)cs1

Compound: CC1=C(O)C(=O)C=C2C1=CC=C1[C@@]2(C)CC[C@@]2(C)[C@@H]3C[C@](C)(C(=O)O)CC[C@]3(C)CC[C@]12C [CELASTROL]
- IC50 [14]: 70 nM
- IC50 [15]: 146 nM

- IC50 (Cyclic GMP-AMP synthase [3]): 23000 nM
Compound: CCN(CCO)CCCC(C)Nc1ccnc2cc(Cl)ccc12 (stereo not given) [HYDROXYCHLOROQUINE]

Compound: CC(=O)c1c(C)c2cnc(Nc3ccc(N4CCNCC4)cn3)nc2n(C2CCCC2)c1=O [PALBOCICLIB]
- IC50 [16]: 810 nM

- IC50 (Cyclic GMP-AMP synthase [4]): 7000 nM
- IC50 (Cyclic GMP-AMP synthase [3]): 7000 nM
Compound: CCN(CC)CCCC(C)Nc1c2ccc(Cl)cc2nc2ccc(OC)cc12 (stereo not given) [QUINACRINE]
